Measurements published in PubChem BioAssay (NCI).
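Growth conditions: 96-well plates. Treatment: test compound, 48 hours, 5 concentrations. Analysis: linear interpolation between bracketing concentrations; unreached endpoints set to highest concentration. TGI is the concentration that stops growth completely.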

Legend:
Assay in all cases: NCI tumour cell line growth inhibition, 48 h
NCI/ADR-RES ovarian = tested on: NCI/ADR-RES ovarian
M14 melanoma = tested on: M14 melanoma
MDA-N = tested on: MDA-N
HCT-116 colon = tested on: HCT-116 colon
RXF 393 renal = tested on: RXF 393 renal
HOP-62 NSCLC = tested on: HOP-62 NSCLC
SF-268 CNS = tested on: SF-268 CNS
COLO 205 colon = tested on: COLO 205 colon
HCC-2998 colon = tested on: HCC-2998 colon
OVCAR-4 ovarian = tested on: OVCAR-4 ovarian
SN12C renal = tested on: SN12C renal
SK-MEL-2 melanoma = tested on: SK-MEL-2 melanoma
UO-31 renal = tested on: UO-31 renal
MCF7 breast = tested on: MCF7 breast
TK-10 renal = tested on: TK-10 renal
HS 578T breast = tested on: HS 578T breast
SK-MEL-28 melanoma = tested on: SK-MEL-28 melanoma
786-0 renal = tested on: 786-0 renal
RPMI-8226 leukemia = tested on: RPMI-8226 leukemia
T-47D breast = tested on: T-47D breast
UACC-62 melanoma = tested on: UACC-62 melanoma
SR leukemia = tested on: SR leukemia
MDA-MB-231 breast = tested on: MDA-MB-231 breast
SK-MEL-5 melanoma = tested on: SK-MEL-5 melanoma
LOX IMVI melanoma = tested on: LOX IMVI melanoma
A498 renal = tested on: A498 renal
HOP-92 NSCLC = tested on: HOP-92 NSCLC
CAKI-1 renal = tested on: CAKI-1 renal
UACC-257 melanoma = tested on: UACC-257 melanoma
BT-549 breast = tested on: BT-549 breast
HCT-15 colon = tested on: HCT-15 colon
NCI-H460 lung = tested on: NCI-H460 lung
U251 CNS = tested on: U251 CNS
MDA-MB-435 = tested on: MDA-MB-435
SNB-75 CNS = tested on: SNB-75 CNS
CCRF-CEM leukemia = tested on: CCRF-CEM leukemia
DU-145 prostate = tested on: DU-145 prostate
IGROV1 ovarian = tested on: IGROV1 ovarian
A549 NSCLC = tested on: A549 NSCLC
SNB-19 CNS = tested on: SNB-19 CNS
MOLT-4 leukemia = tested on: MOLT-4 leukemia
HL-60(TB) leukemia = tested on: HL-60(TB) leukemia
NCI-H522 lung = tested on: NCI-H522 lung
SF-539 CNS = tested on: SF-539 CNS
NCI-H23 lung = tested on: NCI-H23 lung
NCI-H226 lung = tested on: NCI-H226 lung
OVCAR-8 ovarian = tested on: OVCAR-8 ovarian
ACHN renal = tested on: ACHN renal
OVCAR-3 ovarian = tested on: OVCAR-3 ovarian
OVCAR-5 ovarian = tested on: OVCAR-5 ovarian
SK-OV-3 ovarian = tested on: SK-OV-3 ovarian
SF-295 CNS = tested on: SF-295 CNS
EKVX NSCLC = tested on: EKVX NSCLC
HT29 colon = tested on: HT29 colon
K-562 leukemia = tested on: K-562 leukemia
KM12 colon = tested on: KM12 colon
SW-620 colon = tested on: SW-620 colon
PC-3 prostate = tested on: PC-3 prostate
MALME-3M melanoma = tested on: MALME-3M melanoma

CCc1nc(N)nc(N)c1-c1ccc(Cc2ccccc2)c([N+](=O)[O-])c1
TGI (NCI/ADR-RES ovarian): > 62.8 µM | TGI (M14 melanoma): > 84.9 µM | TGI (MDA-N): > 81.8 µM | TGI (HCT-116 colon): > 61.1 µM | TGI (RXF 393 renal): > 84.3 µM | TGI (HOP-62 NSCLC): > 69.7 µM | TGI (SF-268 CNS): > 56.2 µM | TGI (COLO 205 colon): > 65.4 µM | TGI (HCC-2998 colon): > 64.6 µM | TGI (OVCAR-4 ovarian): > 93.3 µM | TGI (SN12C renal): > 100 µM | TGI (SK-MEL-2 melanoma): > 100 µM | TGI (UO-31 renal): > 54.5 µM | TGI (MCF7 breast): > 65.1 µM | TGI (TK-10 renal): > 71.4 µM | TGI (HS 578T breast): > 67.1 µM | TGI (SK-MEL-28 melanoma): > 100 µM | TGI (786-0 renal): > 60.7 µM | TGI (RPMI-8226 leukemia): > 54.3 µM | TGI (T-47D breast): > 85.4 µM | TGI (UACC-62 melanoma): > 65.6 µM | TGI (SR leukemia): 6.11 µM | TGI (MDA-MB-231 breast): > 70.8 µM | TGI (SK-MEL-5 melanoma): > 100 µM | TGI (LOX IMVI melanoma): > 80.9 µM | TGI (A498 renal): > 74.2 µM | TGI (HOP-92 NSCLC): > 59.3 µM | TGI (CAKI-1 renal): > 100 µM | TGI (UACC-257 melanoma): > 71 µM | TGI (BT-549 breast): > 65.8 µM | TGI (HCT-15 colon): > 59.7 µM | TGI (NCI-H460 lung): > 60.8 µM | TGI (U251 CNS): > 65.5 µM | TGI (MDA-MB-435): > 100 µM | TGI (SNB-75 CNS): > 60 µM | TGI (CCRF-CEM leukemia): > 62 µM | TGI (DU-145 prostate): > 76.3 µM | TGI (IGROV1 ovarian): > 64.2 µM | TGI (A549 NSCLC): > 70.7 µM | TGI (SNB-19 CNS): > 100 µM | TGI (MOLT-4 leukemia): > 63.1 µM | TGI (HL-60(TB) leukemia): > 53.4 µM | TGI (NCI-H522 lung): > 35.8 µM | TGI (SF-539 CNS): > 62.4 µM | TGI (NCI-H23 lung): > 60.4 µM | TGI (NCI-H226 lung): > 68.9 µM | TGI (OVCAR-8 ovarian): > 62.1 µM | TGI (ACHN renal): > 61.2 µM | TGI (OVCAR-3 ovarian): > 76 µM | TGI (OVCAR-5 ovarian): > 100 µM | TGI (SK-OV-3 ovarian): > 83.6 µM | TGI (SF-295 CNS): > 65.5 µM | TGI (EKVX NSCLC): > 58.8 µM | TGI (HT29 colon): > 61.5 µM | TGI (K-562 leukemia): > 59.5 µM | TGI (KM12 colon): > 62.4 µM | TGI (SW-620 colon): > 64.2 µM | TGI (PC-3 prostate): > 100 µM

Cc1oc2c(c1C)S(=O)(=O)C(C#N)=CN2
TGI (NCI/ADR-RES ovarian): > 100 µM | TGI (M14 melanoma): > 100 µM | TGI (MDA-N): > 100 µM | TGI (HCT-116 colon): > 100 µM | TGI (HOP-62 NSCLC): > 100 µM | TGI (SF-268 CNS): > 100 µM | TGI (COLO 205 colon): > 100 µM | TGI (HCC-2998 colon): > 100 µM | TGI (OVCAR-4 ovarian): > 100 µM | TGI (SN12C renal): > 100 µM | TGI (SK-MEL-2 melanoma): > 100 µM | TGI (UO-31 renal): > 100 µM | TGI (MCF7 breast): > 100 µM | TGI (TK-10 renal): > 100 µM | TGI (HS 578T breast): > 100 µM | TGI (SK-MEL-28 melanoma): > 100 µM | TGI (786-0 renal): > 100 µM | TGI (RPMI-8226 leukemia): > 100 µM | TGI (MALME-3M melanoma): > 100 µM | TGI (T-47D breast): > 100 µM | TGI (UACC-62 melanoma): > 100 µM | TGI (SR leukemia): > 100 µM | TGI (MDA-MB-231 breast): > 100 µM | TGI (SK-MEL-5 melanoma): > 100 µM | TGI (LOX IMVI melanoma): > 100 µM | TGI (A498 renal): > 100 µM | TGI (HOP-92 NSCLC): > 100 µM | TGI (CAKI-1 renal): > 100 µM | TGI (UACC-257 melanoma): > 100 µM | TGI (BT-549 breast): > 100 µM | TGI (HCT-15 colon): > 100 µM | TGI (NCI-H460 lung): > 100 µM | TGI (U251 CNS): > 100 µM | TGI (MDA-MB-435): > 100 µM | TGI (SNB-75 CNS): > 100 µM | TGI (DU-145 prostate): > 100 µM | TGI (IGROV1 ovarian): > 100 µM | TGI (A549 NSCLC): > 100 µM | TGI (SNB-19 CNS): > 100 µM | TGI (MOLT-4 leukemia): > 100 µM | TGI (NCI-H522 lung): > 100 µM | TGI (SF-539 CNS): > 100 µM | TGI (NCI-H23 lung): > 100 µM | TGI (NCI-H226 lung): > 100 µM | TGI (OVCAR-8 ovarian): > 100 µM | TGI (ACHN renal): > 100 µM | TGI (OVCAR-3 ovarian): > 100 µM | TGI (OVCAR-5 ovarian): > 100 µM | TGI (SK-OV-3 ovarian): > 100 µM | TGI (SF-295 CNS): > 100 µM | TGI (EKVX NSCLC): > 100 µM | TGI (HT29 colon): > 100 µM | TGI (K-562 leukemia): > 100 µM | TGI (KM12 colon): > 100 µM | TGI (SW-620 colon): > 100 µM | TGI (PC-3 prostate): > 100 µM
